Assay in all cases: DTP human tumour cell line panel, 48 h
Assay [1] has as its system SK-MEL-28 melanoma.
In assay [2] the test system is NCI/ADR-RES ovarian.
For assay [3], the system named is HCT-15 colon.
For assay [4], the system named is T-47D breast.
In assay [5] the test system is DU-145 prostate.
In assay [6] the test system is OVCAR-4 ovarian.
The subject of assay [7] is A498 renal.
Assay [8] concerns HCT-116 colon.
Assay [9] concerns 786-0 renal.
The test system of assay [10] is SW-620 colon.

This note sets out measurements from PubChem BioAssay (NCI).

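Where inhibition never reached the appropriate level, the endpoint shown equals the highest concentration tested. Otherwise, values were interpolated linearly from a five-concentration, 48-hour dose response in 96-well plates. TGI marks complete inhibition of growth.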

A word on the TGI: it is the concentration at which net growth stops. Low values mean more potent growth arrest, high ones less potent growth arrest. Turning to `COc1ccc2c(c1)OC(c1cccnc1)C(c1ccccc1)C2=O` (stereo not given), the TGI in assay [1], in assay [2], in assay [3], in [4], in assay [5] and in assay [6] was over 100 µM each time. Besides, the TGI in assay [7], in assay [8], in assay [9] and in assay [10] was over 100 µM each time.
As for `CN(C)c1ccc(/C=N/Nc2nc3ccccc3c(=O)n2-c2ccccc2)cc1`, the TGI in assay [1] is over 100 µM; in assay [2], over 100 µM; in assay [3], over 100 µM; in assay [4] it was over 100 µM; in assay [5], over 100 µM; in [6] it was 70.2 µM. The TGI in assay [7] is over 100 µM; in assay [8] it was over 100 µM; in assay [9], 83.3 µM; in assay [10], over 100 µM.
`N#CC1=C2Sc3ccccc3N2[C@H](c2ccccc2)[C@H]2COC(=O)[C@@H]12`: the TGI in [1], in assay [2], in assay [3], in [4], in assay [5] and in [6] was over 100 µM throughout. Also, the TGI in assay [7], in assay [8], in assay [9] and in assay [10] was over 100 µM each time.
Consider `CC(=O)C(C(C)=O)=C1CCCC(O)O1` (stereo not given), for which the concentration for total growth inhibition (TGI) in assay [1], in [2], in assay [3], in [4], in assay [5] and in [6] was over 100 µM throughout. Moreover, the total growth inhibition concentration (TGI) in [7], in assay [8], in [9] and in assay [10] was over 100 µM in each case.
For the compound `CSc1nc(NC2CCCC2)c2cc[nH]c2n1`, the total growth inhibition concentration (TGI) in assay [1], in [2], in assay [3], in assay [4], in [5] and in [6] was over 100 µM in each case. For the same compound, the TGI in [7] is 80.3 µM; in [8], over 100 µM; in assay [9] it was over 100 µM; in assay [10] it was over 100 µM.
